# Results taken from US20100035868A1, “METHODS OF TREATMENT OF UTERINE PATHOLOGICAL CONDITIONS” (MEDICAL RESEARCH COUNCIL, priority 2001, published 2010).
# Read-outs that look alike come from different tables or passages of the source.
# Tests used:
# COX-2 = biological target: T1, COX-2 (Homo sapiens, UniProt P35354); conditions: cited from earlier work
# T1 sequence (P35354 18-604): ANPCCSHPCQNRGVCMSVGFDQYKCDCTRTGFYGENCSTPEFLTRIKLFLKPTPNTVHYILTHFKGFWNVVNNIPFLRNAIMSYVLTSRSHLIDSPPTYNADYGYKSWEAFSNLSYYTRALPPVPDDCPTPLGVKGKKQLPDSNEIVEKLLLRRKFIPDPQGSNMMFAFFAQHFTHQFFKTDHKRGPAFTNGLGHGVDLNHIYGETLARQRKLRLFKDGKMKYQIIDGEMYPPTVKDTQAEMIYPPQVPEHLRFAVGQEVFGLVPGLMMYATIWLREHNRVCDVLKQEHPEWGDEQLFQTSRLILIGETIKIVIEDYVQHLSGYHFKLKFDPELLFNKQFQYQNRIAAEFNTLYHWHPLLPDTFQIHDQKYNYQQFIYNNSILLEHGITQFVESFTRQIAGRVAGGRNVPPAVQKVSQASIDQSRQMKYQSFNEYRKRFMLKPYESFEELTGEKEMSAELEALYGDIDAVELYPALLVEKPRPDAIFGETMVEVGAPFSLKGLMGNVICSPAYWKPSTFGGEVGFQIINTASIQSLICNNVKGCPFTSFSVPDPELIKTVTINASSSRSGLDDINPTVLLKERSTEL
# EP2/EP4 receptors [1] = test: cAMP generation in cultured endometrial adenocarcinoma tissue after PGE2 stimulation; format: cell-based, human; conditions: endometrial adenocarcinoma tissue (n=6), 300 nM PGE2 for 5 min, IBMX 1 mM; treated/untreated
# Protocol: (§1) In vitro culture and cAMP measurement. Endometrial tumour tissue (n=6; two well, two moderately and two poorly differentiated adenocarcinomas) and normal secretory phase endometrium (n=6) were minced finely with scissors and incubated in 2 ml RPMI (Sigma) medium containing 10% fetal calf serum, 0.3 mg/ml L-glutamine, 100 IU penicillin, 100 μg streptomycin and 3 μg/ml indomethacin, for 1.5 hrs at 37C in humidified 5% CO2. Thereafter samples were incubated in the same medium containing IBMX (Sigma) to a final concentration of 1 mM for 30 min at 37C and then stimulated for 5 min with 300 nM PGE2. Control treatments received no PGE2. Tissue was harvested by centrifugation at 2000 g. The supernatant was discarded and the tissue homogenised in 0.1 M HCl. cAMP concentration was quantified by ELISA using a cAMP kit (Biomol; Affiniti, Exeter, UK) and normalised to protein concentration of the homogenate. Protein concentrations were determined using protein assay kits (Bio-Rad, Hemel Hempstead, UK). The data are presented as fold induction of cAMP following treatment with PGE2. Fold induction was calculated by dividing cAMP values for the PGE2-treated samples by the value for the untreated sample.
# EP2/EP4 receptors [2] = test: cAMP generation in cultured normal secretory phase endometrium after PGE2 stimulation; format: cell-based, human; conditions: normal secretory phase endometrium (n=6), 300 nM PGE2 for 5 min, IBMX 1 mM; treated/untreated
# Protocol: as §1
structure (smiles),measurement,setting,value
CS(=O)(=O)Nc1cc2c(cc1Sc1ccc(F)cc1F)C(=O)CC2 [L 475 L337],more specific for COX-2 inhibition than for COX-1 inhibition,COX-2; COX-2 versus COX-1,500 fold
"CS(=O)(=O)Nc1ccc([N+](=O)[O-])cc1Oc1ccccc1 [Nimesulide, N-(4-nitro-2-phenoxyphenyl)methane sulfonamide]",more specific for COX-2 inhibition than for COX-1 inhibition,COX-2,100 fold
"CCCCC[C@H](O)/C=C/[C@H]1[C@H](O)CC(=O)[C@@H]1C/C=C\CCCC(=O)O [PGE2, prostaglandin E2]",fold induction of cAMP generation in response to PGE2,EP2/EP4 receptors [1],3.42±0.46
same,fold induction of cAMP generation in response to PGE2,EP2/EP4 receptors [2],1.15±0.05
